One may read the pEC50 as the negative decadic logarithm of the EC50, by convention in mol/L.

pEC50: −log10 of the molar value. Bridge positions count the residues as written; N and C are the ends. Square brackets hold non-standard residues; d marks the D form. Peptide text beside a SMILES is read from it. pS = N[C@@H](COP(=O)(O)O)C(=O)O

A short description of data set [1]: In vitro metabolism in mouse jejunum loop fluid. In kind it is in vitro ADME. Conditions: for metabolism in control reaction: 120 minute incubation; for degradation rate compared with peptide 2: mouse intestinal fluid. Here is the method: The purpose of this study was to determine the stability of phosphorylated peptides in mouse jejunal loop fluid. […] The isotopically labeled peptide 2 was synthesized with ^13C, ^15N-labeled alanine and leucine (i.e., with a sequence CCpS[^13C6, ^15N]LCCNP[^13C6, ^15N]ACTGC).
Each peptide was synthesized by American Peptide Company, Inc., and was stored desiccated at −20° C. A 1 mg/mL solution for each of the non-labeled peptides was prepared in 1 M tris(hydroxymethyl)aminomethane hydrochloride (Tris-HCl), pH 8 just prior to conducting the mouse intestinal loop fluid assay. A 500 ng/mL solution of ^13C, ^15N-labeled peptide 2 was prepared in 0.1% formic acid in water and was utilized to dilute the jejunum samples for post-assay LC-MS/MS analysis.
To collect the fluid, mice were fasted overnight with full access to water. They were then anesthetized with isofluorane for surgery and subjected to laparotomy in which the small intestine was exteriorized. Jejunum loops of 3 to 4 cm in length were made with sutures starting at 7 cm from the pyloric sphincter of the stomach. Once the loops were formed, they were injected with 200 μL of phosphate buffered saline (PBS) buffer (10 mM, pH 7.4). The abdominal wall and skin of the animals were then sutured, and the animals were allowed to recover for 30 minutes. Following recovery, the animals were sacrificed, the loops were then excised and the fluid inside was recovered and stored at −80° C. until use.
For each peptide, 25 μL of the 1 mg/mL peptide stock solution was added to 25 μL of 1 M Tris-HCl and 25 μL of 10× calf intestinal phosphatase (CIP) buffer containing 500 mM Tris-HCl, 1 M sodium chloride (NaCl), 0.1 mM magnesium chloride (MgCl2), pH 8. The reactions were initiated by adding 175 μL of the mouse jejunum loop fluid or 175 μL of the 1 M Tris-HCl pH8 buffer for the control reactions. The final concentration of each peptide was 100 μg/mL. The reactions were continuously mixed and maintained at 37° C. on a plate shaker. At 0, 2, 5, 10, 20, 30, 60, 90 and 120 minutes after adding the mouse intestinal loop fluid, a 25 μL aliquot was taken and added to 25 μL of 4° C. 12% trichloroacetic acid to stop the reaction. An additional 200 μL of 0.1% formic acid in water was added to these reactions for dilution purposes. These samples were then further diluted by taking 20 μL of each sample and adding it to 480 μL of 0.1% formic acid in water containing 500 ng/mL of the internal standard 13C, 15N-labeled peptide 2.
All samples were analyzed using an Applied Biosystems/MDS SCIEX API 4000 triple quadrupole mass spectrometer equipped with a high-performance liquid chromatography (HPLC) system. The mass spectrometer was operated in multiple reaction monitoring (MRM) mode, with resolution set to 1.2 Da.
The LC-MS/MS data were processed using Analyst version 1.4.2 software (Applied Biosystems/MDS SCIEX). The peak area ratio (ratio of analyte peak area to internal standard peak area) was used to calculate the percent remaining of each peptide.

For data set [2], the target named is T1, Calf intestinal alkaline phosphatase (CIP) (Bos taurus, UniProt P19111).
T1 construct: purchased New England BioLabs, Ipswich, Mass; MO290S
Briefly: Alkaline phosphatase reaction (dephosphorylation of peptide substrates). In kind it is in vitro ADME. Particulars: with and without calf intestinal alkaline phosphatase; data not shown. Here is the method:
For the alkaline phosphatase reactions, peptide stocks were prepared at 1 mg/mL in 0.1 M Tris-HCl pH 8, which were stored at −20° C. until assays were conducted. For the acid phosphatase reactions, peptide stocks were prepared at 1 mg/mL in 50 mM sodium phosphate pH 6, which was stored at −20° C. until assays were conducted.
Calf intestinal alkaline phosphatase (CIP) was obtained from New England BioLabs, Ipswich, Mass. Cat # MO290S. The CIP reaction solution was prepared by dilution with buffer (50 mM KCl, 10 mM Tris-HCl pH 8, 1 mM MgCl2, 50% glycerol) to 0.5 units/μL. The alkaline phosphatase reaction solutions were assembled in 20 μL quantities containing:
2 μL 10×CIP buffer (1M NaCl, 500 mM Tris-HCl pH 8, 100 mM MgCl2)
2 μL peptide stock (1 mg/mL)
4 μL alkaline phosphatase (0, 0.5 or 2 units)
The reaction solutions were mixed gently and incubated for 90 minutes at 37° C. These reaction solutions were stored at −20° C. until analysis. For analysis, the reaction solutions were diluted from 7.5 μL of CIP treated peptide to 50 μL with 0.1% formic acid in water to a final concentration of 10 μM.
Control reactions were assembled for enzyme activity containing 10 mM p-nitrophenylphosphate in place of peptide. After incubation, the reactions were diluted with 0.1 mL of 100 mM borate buffer pH 9 and read at the absorbance of 405 nm to monitor p-nitrophenol appearance.

Data set [3] addresses T2, GC-C (Homo sapiens, UniProt P25092).
T2 construct: endogenous in cells; host or cells: T84 cells
In words: cGMP accumulation in T84 cells for analysis of GC-C activity. It counts as cell-based. The protocol: For the cGMP assay, 4.5×10^5 cells/mL of T84 cells were grown overnight in 24 well tissue culture plates. […] After the second wash, the cells were incubated with 450 μL of 1 mM isobutylmethylxanthine (IBMX) in either the pH 5 or pH 8 buffers for 10 minutes at 37° C. to inhibit any phosphodiesterase activity. The peptides were then diluted in either pH 5 or pH 8 buffer to a 10× concentration. The peptide solution of 50 μL was diluted to a final volume of 500 μL with the T84 cells, bringing each peptide concentration to 1×. An eleven point curve analysis was conducted for each peptide, with final peptide concentrations tested in each assay, in nM: 10000, 3000, 1000, 300, 100, 30, 10, 3, 1, 0.3, 0.1.
There was no peptide control used to determine endogenous levels of cGMP. Peptides were incubated for 30 minutes at 37° C. After 30 minutes, the supernatants were removed and the cells were lysed with 0.1 M HCl. The cells were lysed for 30 minutes on ice. After 30 minutes, lysates were pipetted off and placed into a 96 well HPLC plate and spun at 10,000×g for 10 minutes to remove any cell debris. […]
cGMP concentrations were determined from each sample using the LC/MS conditions in Table 4 and a calculated standard curve. EC50 values were calculated from concentration-response curves generated with GraphPad Prism Software. […]

The conditions of data set [4]: oral administration at therapeutic dose levels; cited from earlier work.
The mark [5] stands for this setting: control reaction (1 M Tris-HCl) at 37° C.

T1 sequence (P19111 20-506): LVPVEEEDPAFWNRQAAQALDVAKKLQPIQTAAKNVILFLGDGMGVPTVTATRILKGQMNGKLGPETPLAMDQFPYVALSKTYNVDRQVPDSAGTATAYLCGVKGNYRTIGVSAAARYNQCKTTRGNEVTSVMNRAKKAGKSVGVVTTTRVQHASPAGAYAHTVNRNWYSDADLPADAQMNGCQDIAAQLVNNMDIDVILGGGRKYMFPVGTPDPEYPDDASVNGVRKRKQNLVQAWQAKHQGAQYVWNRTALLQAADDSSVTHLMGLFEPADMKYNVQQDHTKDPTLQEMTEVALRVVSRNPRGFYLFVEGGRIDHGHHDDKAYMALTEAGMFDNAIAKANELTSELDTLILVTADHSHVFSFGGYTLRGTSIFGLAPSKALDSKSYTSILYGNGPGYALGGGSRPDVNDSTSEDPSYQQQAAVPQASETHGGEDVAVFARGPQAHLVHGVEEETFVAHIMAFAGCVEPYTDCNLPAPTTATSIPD
T2 sequence (P25092 24-1073): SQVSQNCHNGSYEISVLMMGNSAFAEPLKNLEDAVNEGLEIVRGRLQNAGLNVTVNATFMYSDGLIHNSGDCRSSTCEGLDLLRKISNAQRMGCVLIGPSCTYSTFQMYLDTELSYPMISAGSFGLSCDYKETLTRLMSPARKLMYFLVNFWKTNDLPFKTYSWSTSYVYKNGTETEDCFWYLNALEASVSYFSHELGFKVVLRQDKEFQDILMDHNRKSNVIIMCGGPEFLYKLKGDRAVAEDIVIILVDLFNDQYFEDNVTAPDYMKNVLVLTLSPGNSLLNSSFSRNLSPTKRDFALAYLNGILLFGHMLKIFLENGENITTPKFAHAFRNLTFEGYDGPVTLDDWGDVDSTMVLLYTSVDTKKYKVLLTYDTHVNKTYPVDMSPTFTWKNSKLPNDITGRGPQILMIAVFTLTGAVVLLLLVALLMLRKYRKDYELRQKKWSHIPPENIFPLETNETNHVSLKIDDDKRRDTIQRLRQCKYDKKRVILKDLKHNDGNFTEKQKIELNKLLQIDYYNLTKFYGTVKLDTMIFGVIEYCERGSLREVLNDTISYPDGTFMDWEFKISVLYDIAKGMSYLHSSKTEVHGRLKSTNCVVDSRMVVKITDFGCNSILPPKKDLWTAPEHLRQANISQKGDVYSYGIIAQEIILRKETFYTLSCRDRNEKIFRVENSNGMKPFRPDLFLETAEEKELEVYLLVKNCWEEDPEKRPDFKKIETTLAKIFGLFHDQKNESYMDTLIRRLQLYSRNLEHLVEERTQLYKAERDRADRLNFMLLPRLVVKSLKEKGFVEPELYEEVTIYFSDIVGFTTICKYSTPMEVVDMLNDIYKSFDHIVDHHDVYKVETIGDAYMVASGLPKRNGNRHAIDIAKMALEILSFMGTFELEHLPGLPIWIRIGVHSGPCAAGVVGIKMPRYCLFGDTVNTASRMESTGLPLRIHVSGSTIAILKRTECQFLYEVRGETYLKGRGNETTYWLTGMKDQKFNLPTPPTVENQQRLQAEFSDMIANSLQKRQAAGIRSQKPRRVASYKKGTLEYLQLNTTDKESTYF

Turning to `CC(C)C[C@@H]1NC(=O)[C@H](CO)NC(=O)[C@@H]2CSSC[C@@H]3NC(=O)[C@H](C)NC(=O)[C@@H]4CCCN4C(=O)[C@H](CC(N)=O)NC(=O)[C@H](CSSC[C@H](N)C(=O)N2)NC(=O)[C@H](CSSC[C@@H](C(=O)O)NC(=O)CNC(=O)[C@H]([C@@H](C)O)NC3=O)NC1=O` [Dephospho-Peptide 2, CCSLCCNPACTGC] (H-CCSLCCNPACTGC-OH; disulfide 1-6, 2-10, 5-13 (inferred); N-terminus and C-terminus assumed), the “metabolism in control reaction” value in data set [1] (setting [5]) is given as “not metabolized”. For the same molecule, the “degradation rate compared with peptide 2” value in data set [1] is “degraded faster”.

Consider `CC(C)C[C@@H]1NC(=O)[C@H](COP(=O)(O)O)NC(=O)[C@@H]2CSSC[C@@H]3NC(=O)[C@H](C)NC(=O)[C@@H]4CCCN4C(=O)[C@H](CC(N)=O)NC(=O)[C@H](CSSC[C@H](N)C(=O)N2)NC(=O)[C@H](CSSC[C@@H](C(=O)O)NC(=O)CNC(=O)[C@H]([C@@H](C)O)NC3=O)NC1=O` [Peptide 2, CCpSLCCNPACTGC] (H-CC[pS]LCCNPACTGC-OH; disulfide 1-6, 2-10, 5-13 (inferred); N-terminus and C-terminus assumed), for which, in data set [1] (setting [5]), the “formation of metabolite dephospho-peptide 2 in control reaction” value was “no dephospho-peptide 2 was formed” and the “metabolism in control reaction” value is “not metabolized”.

For `CC(C)C[C@@H]1NC(=O)[C@H](CCC(=O)O)NC(=O)[C@@H]2CSSC[C@@H]3NC(=O)[C@H](C)NC(=O)[C@@H]4CCCN4C(=O)[C@H](CC(N)=O)NC(=O)[C@H](CSSC[C@H](N)C(=O)N2)NC(=O)[C@H](CSSC[C@@H](C(=O)N[C@@H](Cc2ccc(O)cc2)C(=O)O)NC(=O)CNC(=O)[C@H]([C@@H](C)O)NC3=O)NC1=O` [Peptide 3, CCELCCNPACTGCY] (H-CCELCCNPACTGCY-OH; disulfide 1-6, 2-10, 5-13 (inferred); N-terminus and C-terminus assumed), the “detection of peptide in mouse jejunum fluid” value in data set [1] (after 90 minutes, 37° C., 100 μg/mL) is reported as “not detected”. For the same molecule, the “metabolism in control reaction” value in data set [1] (setting [5]) is given as “not metabolized”. Also, in data set [1], the “degradation rate compared with peptide 2” value is recorded as “degraded faster”. Moreover, the “effect of CIP treatment (LC-MS)” value in data set [2] is given as “not affected”.

`CC(C)C[C@@H]1NC(=O)[C@H](COP(=O)(O)O)NC(=O)[C@@H]2CSSC[C@@H]3NC(=O)[C@H](C)NC(=O)[C@@H]4CCCN4C(=O)[C@H](CC(N)=O)NC(=O)[C@H](CSSC[C@H](NC(=O)[C@H](CC(=O)O)NC(=O)[C@@H](N)CC(=O)O)C(=O)N2)NC(=O)[C@H](CSSC[C@@H](C(=O)N[C@@H](Cc2ccc(O)cc2)C(=O)O)NC(=O)CNC(=O)[C@H]([C@@H](C)O)NC3=O)NC1=O` [Peptide 5, DDCCpSLCCNPACTGCY] (H-DDCC[pS]LCCNPACTGCY-OH; disulfide 3-8, 4-12, 7-15 (inferred); N-terminus and C-terminus assumed) showed a pEC50 in data set [3] of 7.83.

Take `C[C@@H]1NC(=O)[C@@H]2CCCN2C(=O)[C@H](CC(N)=O)NC(=O)[C@@H]2CSSC[C@H](N)C(=O)N[C@H]3CSSC[C@H](NC1=O)C(=O)N[C@@H]([C@@H](C)O)C(=O)NCC(=O)N[C@H](C(=O)N[C@@H](Cc1ccc(O)cc1)C(=O)O)CSSC[C@H](NC(=O)[C@H](Cc1ccc(O)cc1)NC(=O)[C@H](CCC(=O)O)NC3=O)C(=O)N2` [linaclotide, Linaclotide] (H-CCEYCCNPACTGCY-OH; disulfide 1-6, 2-10, 5-13): the “systemic levels after oral administration” value in data set [4] was “no detectable levels”.

The values are drawn from patent US9650417B2, “Treatments for gastrointestinal disorders” (Ironwood Pharmaceuticals, Inc., priority 2011, dated 2017).
